Laboratory results published in US12378186B2, “Inhibitors of meprin α and β” (VIVORYON THERAPEUTICS N.V., priority 2016, dated 2025).
Read-outs that look alike come from different tables or passages of the source.

Assays:
hMeprin β = target: T1, hMeprin β (Homo sapiens, UniProt Q16820); experiment: Enzymatic assay, cleavage of internally quenched peptide substrate, hMeprin β; assay type: biochemical
T1 sequence (Q16820 62-701): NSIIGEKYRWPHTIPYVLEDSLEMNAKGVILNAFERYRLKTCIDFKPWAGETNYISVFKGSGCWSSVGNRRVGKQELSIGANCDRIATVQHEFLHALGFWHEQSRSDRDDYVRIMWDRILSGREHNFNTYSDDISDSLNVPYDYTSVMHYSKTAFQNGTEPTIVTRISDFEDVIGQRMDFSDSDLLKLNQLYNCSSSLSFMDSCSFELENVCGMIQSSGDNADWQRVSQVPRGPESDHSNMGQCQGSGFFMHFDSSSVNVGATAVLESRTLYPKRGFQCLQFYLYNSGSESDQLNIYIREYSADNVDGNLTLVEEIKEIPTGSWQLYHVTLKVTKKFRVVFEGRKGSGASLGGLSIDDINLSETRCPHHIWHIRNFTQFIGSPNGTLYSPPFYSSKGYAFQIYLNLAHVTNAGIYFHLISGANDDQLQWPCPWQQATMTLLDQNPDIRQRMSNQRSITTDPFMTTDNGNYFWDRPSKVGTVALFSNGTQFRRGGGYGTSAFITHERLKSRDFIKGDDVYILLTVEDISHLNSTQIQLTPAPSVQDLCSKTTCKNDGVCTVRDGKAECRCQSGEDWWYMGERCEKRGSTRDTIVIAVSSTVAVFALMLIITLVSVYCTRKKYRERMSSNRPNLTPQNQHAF
Protocol: (§1) A typical assay of 250 μl total volume measured in black 96 well plates consisted of 100 μl buffer, 50 μl enzyme at a final concentration of 5e-8 M to 5e-9 M, 50 μl substrate (0.15 to 80 μM, in buffer, 0.5% DMSO) and 50 μl inhibitor solution (in buffer, 1% DMSO). In case of 125 μl assay volume (black 96 half area well plates) all volumes were cut in half. Enzymatic activity of ADAMs was measured in 384 well plates with 60 μl total assay volume consisting of 20 μl inhibitor, 20 μl buffer, 10 μl enzyme and 10 μl substrate.
(§2) Ki values were assessed combining 4 substrate concentrations (5-40 μM) with at least 5 inhibitor concentrations. […] Initial velocities were determined and converted into concentration units applying a standard curve obtained after complete conversion of different substrate concentrations under assay conditions. All measurements were performed using a fluorescence plate reader (FLUOstar OPTIMA, BMG Labtech) at 30° C. The kinetic parameters were determined at least in duplicates on separate days. The excitation/emission wavelength was 340/420 nm. The kinetic data was evaluated using GraFit software (version 7.0.3, Erithacus Software).
(§3) The following compounds according to the present invention were synthesized using the above general procedures. IC50 refers to the average IC50 values measured as described above, SD (IC50) refers to the standard deviation of the average IC50 values, Ki refers to the average K; values measured as described above, and SD (Ki) to the standard deviation of the average Ki values.

hMeprin α = target: T2, hMeprin α (Homo sapiens, UniProt Q16819); experiment: biochemical; assay type: biochemical
T2 sequence (Q16819 66-746): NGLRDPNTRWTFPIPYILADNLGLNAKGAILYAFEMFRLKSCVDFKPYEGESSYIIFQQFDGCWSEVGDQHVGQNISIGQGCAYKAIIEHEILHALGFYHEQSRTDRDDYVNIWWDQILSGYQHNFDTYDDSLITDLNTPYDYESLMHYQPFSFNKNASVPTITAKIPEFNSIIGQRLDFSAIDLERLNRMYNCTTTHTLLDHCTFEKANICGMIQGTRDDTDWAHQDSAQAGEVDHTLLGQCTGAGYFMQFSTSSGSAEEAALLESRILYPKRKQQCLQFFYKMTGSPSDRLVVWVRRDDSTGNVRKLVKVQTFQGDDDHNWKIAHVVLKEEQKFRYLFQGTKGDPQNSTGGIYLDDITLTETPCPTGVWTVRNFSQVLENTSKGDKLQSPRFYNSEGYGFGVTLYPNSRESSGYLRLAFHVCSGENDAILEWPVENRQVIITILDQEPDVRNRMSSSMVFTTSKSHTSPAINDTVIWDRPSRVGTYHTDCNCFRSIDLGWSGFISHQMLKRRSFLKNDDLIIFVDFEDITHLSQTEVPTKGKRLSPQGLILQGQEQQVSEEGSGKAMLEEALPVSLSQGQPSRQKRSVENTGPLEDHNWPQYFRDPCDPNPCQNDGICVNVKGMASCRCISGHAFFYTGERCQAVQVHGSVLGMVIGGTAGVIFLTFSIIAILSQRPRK
Protocol: as §1, §2, §3

[1] = average IC50, 10 μM substrate, 30° C., 40 mM HEPES pH 7.4, read-out: Meprin Alpha IC50
[2] = average Ki, 4 substrate concentrations (5-40 μM), 30° C., 40 mM HEPES pH 7.4, read-out: Meprin Alpha Ki
[3] = average IC50, 10 μM substrate, 30° C., 40 mM Tris pH 8.0, read-out: Meprin Beta IC50

IC50 (hMeprin β) [µM]	Ki (hMeprin β) [µM]	IC50 (hMeprin α; [1]) [µM]	Ki (hMeprin α; [2]) [µM]	SMILES	further results
31.4	–	–	–	O=C(O)c1cccc(CN2CCCC2C(=O)NO)c1 (stereo in doubt) [Example 12, 3-[[(2R)-2-(Hydroxycarbamoyl)pyrrolidin-1-yl]methyl]benzoic acid]	–
41.1	–	–	–	O=C(O)c1cccc(CN2CCCC2C(=O)NO)c1 (stereo in doubt) [Example 13, 3-[[(2S)-2-(Hydroxycarbamoyl)pyrrolidin-1-yl]methyl]benzoic acid]	–
0.468	0.223	85.7	–	O=C(CN(Cc1ccc(C(=O)O)cc1)Cc1ccc(C(=O)O)cc1)NO [Example 1, 4-[[(4-Carboxyphenyl)methyl-[2-(hydroxyamino)-2-oxo-ethyl]amino]methyl]benzoic acid]	–
–	0.018	30.9	10.4	O=C(CN(Cc1cccc(C(=O)O)c1)Cc1cccc(C(=O)O)c1)NO [Example 2, 3-[[(3-Carboxyphenyl)methyl-[2-(hydroxyamino)-2-oxo-ethyl]amino]methyl]benzoic acid]	–
25.6	15.7	–	–	COc1cccc(CN(CC(=O)NO)Cc2cccc(OC)c2)c1 [Example 5, 2-[bis[(3-Methoxyphenyl)methyl]amino]-ethanehydroxamic acid]	–
–	0.039	–	1.21	COc1ccc(CN(CC(=O)NO)Cc2cccc(C(=O)O)c2)cc1 [Example 6, 3-[[[2-(Hydroxyamino)-2-oxo-ethyl]-[(4-methoxyphenyl)methyl]amino]-methyl]benzoic acid]	–
1.44	1.03	–	–	O=C(CN(Cc1ccc(-c2ccccc2)cc1)Cc1cccc(C(=O)O)c1)NO [Example 8, 3-[[[2-(Hydroxyamino)-2-oxo-ethyl]-[(4-biphenyl)methyl]amino]-methyl]benzoic acid]	–
2.25	0.874	–	–	CCCOc1ccc(CN(CC(=O)NO)Cc2cccc(C(=O)O)c2)cc1 [Example 9, 3-[[[2-(Hydroxyamino)-2-oxo-ethyl]-[(4-propoxyphenyl)methyl]amino]-methyl]benzoic acid]	–
0.352	0.157	3.74	1.09	COc1ccc(CN(CC(=O)NO)Cc2cccc(C(=O)O)c2)cc1F [Example 10, 3-[[(3-Fluoro-4-methoxy-phenyl)methyl-[2-(hydroxyamino)-2-oxo-ethyl]amino]methyl]benzoic acid]	–
0.355	0.154	2.12	1.26	COc1cc(F)c(CN(CC(=O)NO)Cc2cccc(C(=O)O)c2)c(F)c1 [Example 11, 3-[[(2,6-Difluoro-4-methoxy-phenyl)methyl-[2-(hydroxyamino)-2-oxo-ethyl]amino]methyl]benzoic acid]	–
31.8	–	–	–	COc1ccc(CN(CC(=O)NO)Cc2ccc(OC)cc2)cc1 [Example 15, 2-[bis[(4-Methoxyphenyl)methyl]amino]ethane-hydroxamic acid]	–
22.8	–	–	–	COc1ccc(CN(CC(=O)NO)Cc2ccccc2C(=O)O)cc1 [Example 16, 2-[[[2-(Hydroxyamino)-2-oxo-ethyl]-[(4-methoxyphenyl)methyl]amino]-methyl]benzoic acid]	–
–	0.797	–	–	O=C(CN(Cc1ccccc1)Cc1cccc(C(=O)O)c1)NO [Example 17]	–
0.361	0.17	4.67	1.99	Cc1ccc(CN(CC(=O)NO)Cc2cccc(C(=O)O)c2)cc1 [Example 18, 3-[[[2-(Hydroxyamino)-2-oxo-ethyl]-(p-tolyl-methyl)amino]methyl]benzoic acid]	–
–	–	5.66	1.6	N#Cc1ccc(CN(CC(=O)NO)Cc2ccc(C#N)cc2)cc1 [Example 55, 2-[bis[(4-cyanophenyl)methyl]amino]-ethanehydroxamic acid]	–
–	–	4.98	1.01	COc1c(Cl)ccc(CN(CC(=O)NO)Cc2ccc(Cl)c(OC)c2F)c1F [Example 56, 2-[bis[(4-chloro-2-fluoro-3-methoxy-phenyl)-methyl]amino]ethanehydroxamic acid]	–
–	–	–	1.2	N#Cc1ccc(CN(CCC(=O)NO)Cc2ccc(C#N)cc2)cc1 [Example 57, 3-[bis[(4-cyanophenyl)methyl]amino]-propanehydroxamic acid]	–
–	–	–	0.169	O=C(CCN(Cc1ccc(Cl)cc1F)Cc1ccc(Cl)cc1F)NO [Example 62, 3-[bis[(4-chloro-2-fluoro-phenyl)methyl]-amino]propanehydroxamic acid]	–
–	–	–	0.157	COc1c(Cl)ccc(CN(CCC(=O)NO)Cc2ccc(Cl)c(OC)c2F)c1F [Example 65, 3-[bis[(4-chloro-2-fluoro-3-methoxy-phenyl)-methyl]amino]propanehydroxamic acid]	–
–	–	7.88	3.09	O=C(CN(Cc1ccccc1)Cc1ccccc1)NO [Example 67, 2-(dibenzylamino) ethanehydroxamic acid]	–

SMILES	IC50 (hMeprin β) [µM]	Ki (hMeprin β) [µM]	IC50 (hMeprin α; [1]) [µM]	Ki (hMeprin α; [2]) [µM]	further results
O=C(CNCc1cccc(C(=O)O)c1)NO [Example 3, 3-[[[2-(Hydroxyamino)-2-oxo-ethyl]amino]-methyl]benzoic acid]	–	0.183	–	–	IC50 (hMeprin β; [3]): 0.377 µM
O=C(CN(Cc1ccc2c(c1)OCO2)Cc1ccc2c(c1)OCO2)NO [Example 4, 2-[bis(1,3-Benzodioxol-5-ylmethyl)amino]-ethanehydroxamic acid]	5.36	6.56	0.83	0.274	–
O=C(CN(Cc1ccc(C(=O)O)cc1)Cc1cccc(C(=O)O)c1)NO [Example 7, 3-[[(4-Carboxyphenyl)methyl-[2-(hydroxyamino)-2-oxo-ethyl]amino]methyl]benzoic acid]	–	0.101	44.4	–	IC50 (hMeprin β; [3]): 0.206 µM
COc1cccc(CN(CC(=O)NO)Cc2cccc(C(=O)O)c2)c1 [Example 14, 3-[[[2-(Hydroxyamino)-2-oxo-ethyl]-[(3-methoxyphenyl)methyl]amino]-methyl]benzoic acid]	–	0.288	–	–	IC50 (hMeprin β; [3]): 0.559 µM
N#Cc1ccc(CN(CC(=O)NO)Cc2cccc(C(=O)O)c2)cc1 [Example 19, 3-[[(4-Cyanophenyl)methyl-[2-(hydroxyamino)-2-oxo-ethyl]amino]methyl]benzoic acid]	–	0.125	4.88	1.95	IC50 (hMeprin β; [3]): 0.32 µM
O=C(CN(Cc1ccc(Cl)cc1)Cc1cccc(C(=O)O)c1)NO [Example 20, 3-[[(4-Chlorophenyl)methyl-[2-(hydroxyamino)-2-oxo-ethyl]amino]methyl]benzoic acid]	–	0.033	1.79	0.796	IC50 (hMeprin β; [3]): 0.076 µM
O=C(CN(Cc1ccc(F)cc1)Cc1cccc(C(=O)O)c1)NO [Example 21, 3-[[(4-Fluorophenyl)methyl-[2-(hydroxyamino)-2-oxo-ethyl]amino]methyl]benzoic acid]	–	1.68	–	–	IC50 (hMeprin β; [3]): 0.177 µM; IC50 (hMeprin α): 4.21 µM; Ki (hMeprin α): 1.68 µM
